Assay results taken from patent US11878047B2, “ATF5 peptide variants and uses thereof” (Sapience Therapeutics, Inc., priority 2018, dated 2024).
Read-outs that look alike come from different tables or passages of the source. Ends that are not written are not given here.

Tests used:
Type in all cases: cell-based, human
HL60 cells = assay: HL60 cell viability (cytotoxicity) assay, Annexin V FITC/PI flow cytometry
Experimental: HL60 PML suspension cells were set at a density of 3.5×10^3 cells/well in 150 μL of RPMI+1.5% fetal bovine serum (FBS) in a 96 well dish. ST-3, reconstituted at a concentration of 10 mg/mL in 20 mM His, pH 7.5, was added to each well at a volume of 50 μL to a final concentration range of 0-80 μM. Cells were incubated with ST-3 for 48 hours at 37° C. Cell viability was quantified by flow cytometry using an Abcam Annexin V FITC apoptosis detection kit. Briefly, cells were washed with PBS and resuspended in 1× assay buffer containing Annexin V FITC and propidium iodide (PI). Annexin V detects apoptotic cells, and PI stains dead cells. After staining, apoptotic cells show green fluorescence, dead cells show red and green fluorescence, and live cells show little or no fluorescence. Cells were selected for analysis based on forward scatter (FSC) vs. side scatter (SSC), and analyzed by BD Accuri C6 Plus flow cytometer to detect Annexin V-FITC binding (Ex=488 nm; Em=530 nm) using FITC signal detector and PI staining by the phycoerythrin emission signal detector. Percentage of Annexin V^low and PI^low were quantified and presented as % Viability.
Lyophilized ST-3 or ST-3 with glycine (ST-4) or alanine (ST-5) substituted for cysteine at amino acid position 21 was freshly reconstituted in histidine buffer to a stock solution of 5 mg/mL and added to cells at a final concentration range of 0-40 μM. Cells were incubated with ATF5 peptide for 48 hours prior to quantification of cell viability.
(§1) ST-13 was further examined in various human cancer cell lines, as was a second retro-inverso variant, ST-14. Suspension cells (HL60, AML14, or SET2) were set at a density of 3.5×10^3 cells/well in 150 μL of RPMI+1.5% fetal bovine serum (FBS) in a tissue culture-treated 96 well dish. ATF5 peptide, reconstituted at a concentration of 10 mg/mL in 20 mM His, pH 7.5, was added to each well at a volume of 50 μL to a final concentration range of 0-80 μM. Cells were incubated with peptide for 48 hours at 37° C. Cell viability was quantified by flow cytometry using an Abcam Annexin V FITC apoptosis detection kit. Briefly, cells were washed with PBS and resuspended in 1× assay buffer containing Annexin V FITC and propidium iodide (PI). Cells were analyzed by BD Accuri C6 Plus flow cytometer to detect Annexin V-FITC binding (Ex=488 nm; Em=530 nm) using FITC signal detector, and to detect PI staining using the phycoerythrin emission signal detector. Percentage of Annexin V^low and PI^low were quantified and presented as % Viability. EC50 values were calculated using GraphPad Prism v.7 XML.

[1] = test system: neoplastic cells / wide range of tumor cell types; assay: Cytotoxic activity across tumor cell types
Experimental: as §1, with “Briefly, cells were washed with PBS and resuspended in 1× assay buffer containing Annexin V FITC and propidium iodide (PI).” left out, “XML. […] Cell viability was determined as described above for suspension cells or by MTT assay (MCF7 cells). Alternatively, cells were gently removed from the cell culture plate following trypsinization with 2.5% trypsin, and cell viability was quantified by flow cytometry using an Abcam Annexin V FITC apoptosis detection kit, as described above.” for “XML.”

MCF7 breast cancer cells = test system: MCF7 breast cancer cells
Experimental: Additionally, adherent A375, MCF7, U251, DU145, U87, and A549 cells were set at a density of 3.5×10^3 cells/well in 200 μL of media on day −1. On day 0, media was removed and replenished with 150 μL of fresh media, and cells were treated with ATF5 peptide as described. Following a 48-hour incubation at 37° C., floating cells were collected, adherent cells were washed with Dulbecco's Phosphate Buffered Saline (DPBS), dissociated from the dish with 50 μL 2.5% trypsin at RT, and combined with floating cells. Cell viability was determined as described above for suspension cells or by MTT assay (MCF7 cells). Alternatively, cells were gently removed from the cell culture plate following trypsinization with 2.5% trypsin, and cell viability was quantified by flow cytometry using an Abcam Annexin V FITC apoptosis detection kit, as described above.

[2] = test system: AML14 acute myeloid leukemia cells
Experimental: as §1

[3] = test system: SET2 acute myeloid leukemia cells
Experimental: as §1

[4] = HL60 cell viability assay, 48 hours

| Compound | cytotoxic activity compared with other peptides (HL60 cells; [4]) | also measured |
| --- | --- | --- |
| RQIKIWFQNRRMKWKKLEGRCQGLRAENRELEERAESV [ST-9] | significantly increased over that of ST-3 |  |
| RQIKIWFQNRRMKWKKLEGRCQGLRAELRELEERAEAV [ST-10] | comparable to that of ST-9 |  |
| RQIKIWFQNRRMKWKKLEGEGQGLEARNRELKERAESV [ST-4] | attenuated but not ablated |  |
| RQIKIWFQNRRMKWKKLEGEAQGLEARNRELKERAESV [ST-5] | attenuated but not ablated |  |
| RQIKIWFQNRRMKWKKLEGECQGLEARNRELKERAESV [ST-3, reference compound] |  | cytotoxic activity in tumor / neoplastic cells [1]: induces cell death in neoplastic cells |
| RQIKIWFQNRRMKWKKLEGRAQGLRAELRELEERAEAV [ST-11] | improved cytotoxic activity over ST-3 |  |
| RQIKIWFQNRRMKWKKLEGECQGLEARNRELKERAEAV [ST-6] | comparable activity to ST-3 |  |
| CC[C@@H](C)[C@@H](NC(=O)[C@@H](CCCCN)NC(=O)[C@H](NC(=O)[C@@H](Cc1c[nH]c2ccccc12)NC(=O)[C@@H](Cc1ccccc1)NC(=O)[C@@H](CCC(N)=O)NC(=O)[C@@H](CC(N)=O)NC(=O)[C@@H](CCCNC(=N)N)NC(=O)[C@@H](CCCNC(=N)N)NC(=O)[C@@H](CCSC)NC(=O)[C@@H](CCCCN)NC(=O)[C@@H](Cc1c[nH]c2ccccc12)NC(=O)[C@@H](CCCCN)NC(=O)[C@@H](CCCCN)NC(=O)[C@@H](CC(C)C)NC(=O)[C@@H](CCC(=O)O)NC(=O)CNC(=O)[C@@H](CCCNC(=N)N)NC(=O)[C@@H](C)NC(=O)[C@@H](CCC(N)=O)NC(=O)CNC(=O)[C@@H](CC(C)C)NC(=O)[C@@H](CCCNC(=N)N)NC(=O)[C@@H](C)NC(=O)[C@@H](CCC(=O)O)NC(=O)[C@@H](CC(C)C)NC(=O)[C@@H](CCCNC(=N)N)NC(=O)[C@@H](CCC(=O)O)NC(=O)[C@@H](CC(C)C)NC(=O)[C@@H](CCC(=O)O)NC(=O)[C@@H](CCC(=O)O)NC(=O)[C@@H](CCCNC(=N)N)NC(=O)[C@@H](C)NC(=O)[C@@H](CCC(=O)O)NC(=O)[C@@H](C)NC(=O)[C@H](N)C(C)C)[C@H](C)CC)C(=O)N[C@H](CCC(N)=O)C(=O)N[C@H](CCCNC(=N)N)C(=O)O [ST-13] |  | EC50 (MCF7 breast cancer cells): < 1 µM; cytotoxic activity in tumor / neoplastic cells [1]: significant cytotoxic activity; cytotoxic activity compared with other peptides (HL60 cells): comparable activity to ST-11, and superior activity to ST-3; EC50 [2]: < 1 µM; EC50 [3]: 17.7 µM |
